The text below walks through data of ChEMBL document CHEMBL1147234, “Bioassay-guided isolation of epiquinamide, a novel quinolizidine alkaloid and nicotinic agonist from an Ecuadoran poison frog, Epipedobates tricolor” (J Nat Prod, 2003).

Holding throughout (type): functional
The target of test [1] is Acetylcholine receptor; alpha1/beta1/delta/gamma (Homo sapiens) (UniProt P02708+P07510+P11230+Q07001). The experiment in a line: Agonist activity at human nicotinic alpha-1-beta-1-gamma-delta receptor expressed in human TE-671 cells at 50 uM by cell based membrane potential assay relative to (+/-)-epibatidine.
Test [2] concerns the target Neuronal acetylcholine receptor; alpha3/beta2 (Homo sapiens) (UniProt P17787+P32297). The experiment in a line: Agonist activity at human nicotinic alpha3beta2 receptor expressed in human SH-SY5Y cells at 50 uM by cell based membrane potential assay relative to (+/-)-epibatidine.
In test [3] the target is Neuronal acetylcholine receptor; alpha3/beta4 (Homo sapiens) (UniProt P30926+P32297). The experiment in a line: Agonist activity at human nicotinic alpha3beta4 receptor expressed in human IMR32 cells at 50 uM by cell based membrane potential assay relative to (+/-)-epibatidine. The note with it: IMR-32.
Test [4] has as its target Neuronal acetylcholine receptor; alpha3/beta4 (Rattus norvegicus) (UniProt P04757+P12392). The experiment in a line: Agonist activity at rat nicotinic alpha3beta4 receptor expressed in human KXalpha-3-beta-4R2 cells at 50 uM by cell based membrane potential assay relative to (+/-)-epibatidine.
Test [5] concerns the target Neuronal acetylcholine receptor; alpha4/beta2 (Homo sapiens) (UniProt P17787+P43681). The experiment in a line: Agonist activity at human nicotinic alpha4beta2 receptor expressed in human K177 cells at 50 uM by cell based membrane potential assay relative to (+/-)-epibatidine.

With `CC(=O)N[C@@H]1CCCN2CCCC[C@H]12` (relative stereo), the Activity in test [1] was determined as 8%; in test [2], 51%; in test [3], 15%; in test [4] it was 23%; in test [5], 58%.
